Measured values reported in patent publication US9718823B2, “2, 6-Di-nitrogen-containing substituted purine derivative, and preparation method, pharmaceutical composition and use thereof” (Zhejiang Medicine Co., Ltd. Xinchang Pharmaceutical Factory, priority 2013, dated 2017).
Read-outs that look alike come from different tables or passages of the source.

Experiments:
Format in all cases: biochemical
PDGFR β enzyme = biological target: T1, PDGFR β enzyme (Homo sapiens, UniProt P09619); assay: Inhibitory activity to PDGFR β enzyme, HTRF kinEASE TK kit; conditions: read-out: Inhibition rate % (PDGFR β)
T1 construct: purchased Invitrogen P3082
T1 sequence (P09619 33-1106): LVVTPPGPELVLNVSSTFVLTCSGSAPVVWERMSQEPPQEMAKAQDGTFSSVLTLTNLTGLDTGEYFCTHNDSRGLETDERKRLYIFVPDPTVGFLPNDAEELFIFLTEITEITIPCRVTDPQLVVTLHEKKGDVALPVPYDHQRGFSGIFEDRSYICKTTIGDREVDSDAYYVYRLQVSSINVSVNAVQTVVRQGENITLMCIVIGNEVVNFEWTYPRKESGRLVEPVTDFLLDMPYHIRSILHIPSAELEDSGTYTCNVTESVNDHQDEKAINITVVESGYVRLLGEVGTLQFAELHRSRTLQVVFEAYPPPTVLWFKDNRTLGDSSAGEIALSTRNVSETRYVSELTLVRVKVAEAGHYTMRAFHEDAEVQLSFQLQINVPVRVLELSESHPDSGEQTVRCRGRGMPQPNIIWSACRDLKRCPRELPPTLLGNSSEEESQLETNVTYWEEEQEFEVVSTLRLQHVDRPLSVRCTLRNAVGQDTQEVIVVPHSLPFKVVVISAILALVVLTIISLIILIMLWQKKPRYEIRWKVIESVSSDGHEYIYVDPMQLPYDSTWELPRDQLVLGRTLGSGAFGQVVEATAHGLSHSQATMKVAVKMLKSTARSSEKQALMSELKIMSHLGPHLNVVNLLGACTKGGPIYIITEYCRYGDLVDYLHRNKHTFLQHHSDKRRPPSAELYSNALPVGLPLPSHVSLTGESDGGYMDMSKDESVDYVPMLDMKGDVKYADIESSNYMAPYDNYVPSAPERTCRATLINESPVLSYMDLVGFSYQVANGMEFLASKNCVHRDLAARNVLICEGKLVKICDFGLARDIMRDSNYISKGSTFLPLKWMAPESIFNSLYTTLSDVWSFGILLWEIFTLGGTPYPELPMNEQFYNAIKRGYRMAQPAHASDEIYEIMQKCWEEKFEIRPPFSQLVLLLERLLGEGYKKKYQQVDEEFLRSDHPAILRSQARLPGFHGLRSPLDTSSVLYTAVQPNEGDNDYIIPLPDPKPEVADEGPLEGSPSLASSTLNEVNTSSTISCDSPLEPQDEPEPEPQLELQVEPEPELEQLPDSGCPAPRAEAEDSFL
Procedure: HTRF kinEASE TK (Cat.62TK0PEC, Cisbio)
PDGFR β enzyme (Cat.P3082, Invitrogen)
1 mL 1×Kinase Buffer includes 200 μL 5×Enzyme buffer, 5 μL 1M MgCl2, 1 μL 1M DTT, 1 μL 1M MnCl2, 20 μL 2500 nM SEB, 773 μL ddH2O.
TK-Substrate and ATP are diluted to 2.5 times of reaction concentration with 1×PDGFR β Kinase Buffer.
5×PDGFR β enzyme working solution is prepared with 1×PDGFR β kinase buffer.
4×Sa-XL665 working solution is prepared with Detection Buffer.
TK-Ab-Cryptate is diluted 100 times with Detection Buffer to use as working solution.

PI3 K γ = biological target: T2, PI3 K γ (Homo sapiens, UniProt P48736); assay: Inhibitory activity to PI3K γ, PI 3-Kinase (human) HTRF Assay kit; conditions: read-out: Inhibition rate % to PI3 K γ
T2 construct: purchased Biology, Medicilon
T2 sequence (P48736 whole entry): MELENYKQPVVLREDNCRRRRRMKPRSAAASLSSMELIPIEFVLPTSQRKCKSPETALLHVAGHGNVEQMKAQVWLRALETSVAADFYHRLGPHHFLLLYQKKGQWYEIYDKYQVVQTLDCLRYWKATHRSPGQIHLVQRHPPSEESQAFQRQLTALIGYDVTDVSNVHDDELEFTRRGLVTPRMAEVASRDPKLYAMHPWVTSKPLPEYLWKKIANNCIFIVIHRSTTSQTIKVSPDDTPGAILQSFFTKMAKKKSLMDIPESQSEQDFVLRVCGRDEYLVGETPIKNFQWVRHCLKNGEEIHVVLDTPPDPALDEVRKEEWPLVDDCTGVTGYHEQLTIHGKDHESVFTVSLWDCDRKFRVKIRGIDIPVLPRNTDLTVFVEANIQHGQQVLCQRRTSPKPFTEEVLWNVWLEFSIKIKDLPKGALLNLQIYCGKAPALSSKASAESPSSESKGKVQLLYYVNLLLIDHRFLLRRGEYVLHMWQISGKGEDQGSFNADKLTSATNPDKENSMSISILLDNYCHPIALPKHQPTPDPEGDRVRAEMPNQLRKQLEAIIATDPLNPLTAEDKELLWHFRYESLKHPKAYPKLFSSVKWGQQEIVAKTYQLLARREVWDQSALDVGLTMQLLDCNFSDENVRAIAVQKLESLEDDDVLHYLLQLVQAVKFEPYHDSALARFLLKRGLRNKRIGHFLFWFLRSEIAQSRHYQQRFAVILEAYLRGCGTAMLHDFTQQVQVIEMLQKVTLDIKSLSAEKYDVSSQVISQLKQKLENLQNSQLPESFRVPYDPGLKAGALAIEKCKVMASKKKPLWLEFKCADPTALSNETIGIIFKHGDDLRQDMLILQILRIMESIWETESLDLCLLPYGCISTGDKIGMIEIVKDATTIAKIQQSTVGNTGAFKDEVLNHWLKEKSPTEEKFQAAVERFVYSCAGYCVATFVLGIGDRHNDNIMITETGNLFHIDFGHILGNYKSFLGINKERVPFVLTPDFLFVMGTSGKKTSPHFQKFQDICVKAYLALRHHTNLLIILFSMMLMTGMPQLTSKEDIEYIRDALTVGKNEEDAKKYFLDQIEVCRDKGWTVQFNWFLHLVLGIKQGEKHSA
Excerpt: Study on the inhibitory activity of the compounds of present invention to PI 3κα, PI3κδ and PI3κγ. Two or three concentrations of the compounds are selected to preliminary screening to calculate respectively the activity inhibition rate of the compounds of corresponding concentrations to enzyme, then the compounds with better activity are selected by preliminary screening for IC50 test.
(§1) PI 3-Kinase (human) HTRF™ Assay kit (Cat.33-017, Millipore)
PI 3k γ (Biology, Medicilon)
4× Reaction Buffer (Cat.33-002, Millipore) is diluted with ddH2O to 1.33×, and 1M DTT is added to make the final concentration as 6.67 mM. For example, 10 μL DTT is added into 500 μL 4× Reaction Buffer, and water is added to 1.5 mL.
The Test compounds are dissolved with DMSO to 1 mM as storage liquid. 2 μL of each of storage liquid is added into 48 μL ddH2O, to obtain the 40 μM compounds solution containing 4% DMSO. After mixing, 3 μL of each of the solution is added into 27 μL 4% DMSO (in ddH2O) to obtain the 4 μM compounds solution. 5 μL of each dilute solution is added into 384-well plates, then the final concentration of the compounds in the 20 μL final kinase reaction system is 10 μM and 1 μM respectively contained 1% DMSO. The dilution methods of compounds are similar to the preliminary screening in IC50 test.
2×PIP2 working fluid is prepared with 1.33× reaction buffer to the final concentration of 20 μM.
The screening concentration of PI 3k γ kinase: 80 ng/well,
(§2) Kinase is diluted with 2×PIP2 operating fluid, the concentration of kinase operating fluid is 2 times of screening concentration.
10 mM ATP is diluted with 1.33× reaction buffer to 400 μM. The concentration of ATP is 100 μM in 20 μL kinase reaction system.
(§3) Stop A and Stop B are mixed according to the proportion of 3:1, and are placed for 2 hours at room temperature to obtain the stop solution available.
(§4) DM C, DM A and DM B are mixed according to the proportion of 18:1:1, and are placed for 2 hours at room temperature to obtain the detection solution available.

PI3Kδ = biological target: T3, PI3Kδ (Homo sapiens, UniProt O00329); assay: Inhibitory activity to PI3K δ, PI 3-Kinase (human) HTRF Assay kit; conditions: for inhibition at 1 µM: 1 μM (Table 7); for inhibition at 0.4 µM: 0.4 μM (Table 8); for inhibition at 2 µM: 2 μM (Table 8)
T3 construct: purchased Millipore 14-604
T3 sequence (O00329 whole entry): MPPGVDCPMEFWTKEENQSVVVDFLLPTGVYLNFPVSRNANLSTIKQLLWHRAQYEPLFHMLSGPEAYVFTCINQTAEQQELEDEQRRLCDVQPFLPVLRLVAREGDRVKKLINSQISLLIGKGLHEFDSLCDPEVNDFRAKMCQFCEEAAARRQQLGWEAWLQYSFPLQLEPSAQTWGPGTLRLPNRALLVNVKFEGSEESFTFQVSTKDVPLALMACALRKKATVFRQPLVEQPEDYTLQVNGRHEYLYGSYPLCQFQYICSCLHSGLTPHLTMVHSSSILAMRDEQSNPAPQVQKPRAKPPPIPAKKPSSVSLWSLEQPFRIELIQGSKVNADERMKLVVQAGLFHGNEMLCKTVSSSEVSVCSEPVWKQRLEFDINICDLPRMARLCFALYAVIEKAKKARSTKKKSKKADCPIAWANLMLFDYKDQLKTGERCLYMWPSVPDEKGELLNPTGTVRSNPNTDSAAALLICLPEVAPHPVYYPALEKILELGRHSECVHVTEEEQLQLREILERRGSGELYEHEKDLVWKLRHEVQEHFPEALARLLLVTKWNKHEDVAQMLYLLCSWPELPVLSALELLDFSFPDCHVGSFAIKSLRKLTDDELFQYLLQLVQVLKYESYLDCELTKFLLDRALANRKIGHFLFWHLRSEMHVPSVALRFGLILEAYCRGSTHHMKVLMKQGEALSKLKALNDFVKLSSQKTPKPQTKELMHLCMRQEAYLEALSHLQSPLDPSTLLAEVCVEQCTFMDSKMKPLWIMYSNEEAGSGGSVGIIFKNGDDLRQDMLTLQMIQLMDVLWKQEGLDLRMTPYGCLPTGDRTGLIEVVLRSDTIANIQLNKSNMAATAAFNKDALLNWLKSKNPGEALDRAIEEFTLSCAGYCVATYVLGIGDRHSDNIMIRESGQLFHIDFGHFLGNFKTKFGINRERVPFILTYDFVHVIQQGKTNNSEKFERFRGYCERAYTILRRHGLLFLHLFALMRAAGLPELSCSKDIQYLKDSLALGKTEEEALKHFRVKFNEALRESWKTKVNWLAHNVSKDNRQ
T3 sequence (P27986 whole entry partner): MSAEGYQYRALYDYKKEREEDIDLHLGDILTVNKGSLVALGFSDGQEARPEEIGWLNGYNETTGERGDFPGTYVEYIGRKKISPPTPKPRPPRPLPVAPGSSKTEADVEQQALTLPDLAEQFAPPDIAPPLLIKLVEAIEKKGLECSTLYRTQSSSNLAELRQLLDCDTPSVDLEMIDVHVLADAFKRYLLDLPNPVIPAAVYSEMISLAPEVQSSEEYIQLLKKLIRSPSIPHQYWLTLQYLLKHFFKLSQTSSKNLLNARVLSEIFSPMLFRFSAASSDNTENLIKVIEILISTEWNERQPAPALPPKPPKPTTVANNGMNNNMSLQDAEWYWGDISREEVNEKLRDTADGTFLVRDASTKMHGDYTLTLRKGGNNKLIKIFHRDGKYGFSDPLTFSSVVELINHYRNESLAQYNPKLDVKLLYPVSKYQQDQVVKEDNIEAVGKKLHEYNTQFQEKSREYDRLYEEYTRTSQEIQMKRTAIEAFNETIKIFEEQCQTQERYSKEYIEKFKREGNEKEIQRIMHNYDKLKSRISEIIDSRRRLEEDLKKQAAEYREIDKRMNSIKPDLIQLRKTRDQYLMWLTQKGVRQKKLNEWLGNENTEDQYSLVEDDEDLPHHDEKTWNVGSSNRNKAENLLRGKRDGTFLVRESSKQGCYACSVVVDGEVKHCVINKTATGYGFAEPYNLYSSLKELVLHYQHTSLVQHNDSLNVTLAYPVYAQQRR
Procedure: Study on the inhibitory activity of the compounds of present invention to PI 3κα, PI3κδ and PI3κγ.
as §1
For example, 10 μL DTT is added into 500 μL 4× Reaction Buffer, and water is added to 1.5 mL.
The Test compounds are dissolved with DMSO to 1 mM as storage liquid. 2 μL of each of storage liquid is added into 48 μL ddH2O, to obtain the 40 μM compounds solution containing 4% DMSO. After mixing, 3 μL of each of the solution is added into 27 μL 4% DMSO (in ddH2O) to obtain the 4 μM compounds solution. […]
The screening concentration of PI 3k δ kinase: 2 ng/well,
as §2
The concentration of ATP is 100 μM in 20 μL kinase reaction system.
as §3, §4

[1] = read-out: Inhibition rate % to PI3Kδ
[2] = 10 μM (Table 7), read-out: Inhibition rate % to PI3Kδ
[3] = read-out: Inhibition rate % to PI3K delta
[4] = 10 μM (Table 8), read-out: Inhibition rate % to PI3K delta

| inhibition at 1 µM (PDGFR β enzyme; 1 μM) [%] | inhibition at 10 µM (PDGFR β enzyme) [%] | inhibition at 1 µM (PI3 K γ) [%] | inhibition at 10 µM (PI3 K γ) [%] | inhibition at 1 µM (PI3Kδ; [1]) [%] | inhibition at 10 µM (PI3Kδ; [2]) [%] | inhibition at 0.4 µM (PI3Kδ; [3]) [%] | inhibition at 2 µM (PI3Kδ; [3]) [%] | inhibition at 10 µM (PI3Kδ; [4]) [%] | SMILES | inhibition at 1 µM (PDGFR β enzyme) [%] |
| --- | --- | --- | --- | --- | --- | --- | --- | --- | --- | --- |
| 31.2 | 93.5 | 10.4 | 19.1 | 1.25 | 8.64 |  |  |  | COC(=O)C1(Nc2nc(Nc3ccc4nccc(-c5ccccc5)c4c3)nc3[nH]cnc23)CC1 [MED1007-15, 1-(2-(4-phenylquinoline-6-ylamino)-9H-purine-6-ylamino)cyclopropane carboxylic acid methyl ester] |  |
| 9.16 | 24.5 | -13.7 | 4.28 | 31 | 42.1 |  |  |  | c1cc(N2CCOCC2)c2cc(Nc3nc(NC4CC4)c4nc[nH]c4n3)ccc2n1 [MED1007-32, N6-cyclopropyl-N2-(4-morpholinequinoline-6-yl)-9H-purine-2,6-diamine] |  |
| 4.71 | 25.6 | 21 | 20 | 21.4 | 63 |  |  |  | c1cc(N2CCNCC2)c2cc(Nc3nc(NC4CC4)c4nc[nH]c4n3)ccc2n1 [MED1007-33, N6-cyclopropyl-N2-(4-(piperazine-1-yl)quinoline-6-yl)-9H-purine-2,6-diamine] |  |
| 53.8 | 98.8 | 24.4 | 57.3 | 40.2 | 69.8 |  |  |  | CC(C)Oc1nc(Nc2ccc3ncccc3c2)nc2[nH]cnc12 [MED1007-34, N-(6-isopropoxy-9H-purine-2-yl) quinoline-6-amine] |  |
| 7.3 | 43.7 | -6.81 | -4.67 | 13.3 | 42.4 |  |  |  | c1ccc(Oc2nc(Nc3ccc4nccc(N5CCNCC5)c4c3)nc3[nH]cnc23)cc1 [MED1007-54, N-(6-phenoxy-9H-purine-2-yl)-4-(piperazine-1-yl) quinoline-6-amine] |  |
| 3.93 | 29.5 | -0.29 | -0.98 | 2.11 | 35 |  |  |  | CC(C)Oc1nc(Nc2ccc3nccc(N4CCNCC4)c3c2)nc2[nH]cnc12 [MED1007-58, N-(6-isopropoxy-9H-purine-2-yl)-4-(piperazine-1-yl) quinoline-6-amine] |  |
| 4.39 | 0.93 | 0.83 | 4.97 | 18 | 59 |  |  |  | COC(=O)c1ccc(-c2ccnc3ccc(Nc4nc(NC5CC5)c5nc[nH]c5n4)cc23)cc1 [MED1007-59, 4-(6-(6-(cyclopropylamino)-9H-purine-2-ylamino)quinoline-4-yl) p-methyl benzoate] |  |
| -0.63 | 10.6 | -2.59 | 4.45 | -2.33 | 34.1 |  |  |  | COC(=O)c1cccc(-c2ccnc3ccc(Nc4nc(NC5CC5)c5nc[nH]c5n4)cc23)c1 [MED1007-60, 4-(6-(6-(cyclopropylamino)-9H-purine-2-ylamino)quinoline-4-yl) m-methyl benzoate] |  |
| 4.72 | 55 | -8.18 | 20.4 | 16.7 | 102 |  |  |  | COc1cccc(-c2ccnc3ccc(Nc4nc(NC5CC5)c5nc[nH]c5n4)cc23)c1 [MED1007-61, N6-cyclopropyl-N2-(4-(3-methoxyphenyl)quinoline-6-yl)-9H-purine-2,6-diamine] |  |
|  |  |  |  |  |  | 22.6 | 44 | 91.6 | c1ccc(-c2ccnc3ccc(Nc4nc(N5CCOCC5)c5nc[nH]c5n4)cc23)cc1 [MED1007-109, N-(6-morpholine-9H-purine-2-yl)-4-phenyl quinoline-6-amine] |  |
|  |  |  |  |  |  | 6.26 | 2.94 | 12.6 | Oc1nc(Nc2ccc3nccc(-c4ccccc4)c3c2)nc2[nH]cnc12 [MED1007-110, 2-(4-phenylquinoline-6-ylamino)-9H-purine-6-ol] |  |
|  |  |  |  |  |  | 30 | 37.7 | 68.9 | Cc1ccnc2ccc(Nc3nc(NC4CC4)c4nc[nH]c4n3)cc12 [MED1007-113, N6-cyclopropyl-N2-(4-methylquinoline-6-yl)-9H-purine-2,6-diamine dihydrate di-methanesulfonate] |  |
|  |  |  |  |  |  | 28.4 | 49.1 | 78.9 | CCc1ccnc2ccc(Nc3nc(NC4CC4)c4nc[nH]c4n3)cc12 [MED1007-114, N6-cyclopropyl-N2-(4-ethylquinoline-6-yl)-9H-purine-2,6 diamine dihydrate di-methanesulfonate] |  |
|  |  |  |  |  |  | -0.76 | 8.54 | 55 | COc1ccc(-c2ccnc3ccc(Nc4nc(O)c5nc[nH]c5n4)cc23)cc1 [MED1007-132, 2-(4-(4-methoxy-phenyl)quinoline-6-ylamino)-9H-purine-6-ol-methanesulfonate] |  |
|  |  |  |  |  |  | 20.8 | 69 | 83.4 | CC(C)Oc1nc(Nc2ccc3nccc(-c4ccc5c(c4)OCO5)c3c2)nc2[nH]cnc12 [MED1007-133, 4-(benzo[1,3]-dioxole-5-yl)-N-(6-isopropoxy-9H-purine-2-yl) quinoline-6-amine-methanesulfonate] |  |
|  |  |  |  |  |  | 27.2 | 59.6 | 83.4 | CC(C)Oc1nc(Nc2ccc3nccc(-c4cccc(F)c4)c3c2)nc2[nH]cnc12 [MED1007-135, 4-(3-fluorophenyl)-N-(6-isopropoxy-9H-purine-2-yl) quinoline-6-amine-methanesulfonate] |  |
|  |  |  |  |  |  | 15.7 | 44.8 | 80.5 | CC(C)Oc1nc(Nc2ccc3nccc(-c4ccc(F)cc4)c3c2)nc2[nH]cnc12 [MED1007-136, 4-(4-fluorophenyl)-N-(6-isopropoxy-9H-purine-2-yl) quinoline-6-amine-methanesulfonate] |  |
|  |  |  |  |  |  | 27.6 | 63.3 | 99.1 | COc1ccc(-c2ccnc3ccc(Nc4nc(OC(C)C)c5nc[nH]c5n4)cc23)cc1OC [MED1007-137, 4-(3,4-dimethoxyphenyl)-N-(6-isopropoxy-9H-purine-2-yl) quinoline-6-amine-methanesulfonate] |  |
|  |  |  |  |  |  | 4.29 | 15 | 20.1 | Oc1nc(Nc2ccc3nccc(-c4ccc5c(c4)OCO5)c3c2)nc2[nH]cnc12 [MED1007-139, 2-(4-(benzo[1,3]-dioxole-5-yl)quinoline-6-ylamino)-9H-purine-6-ol-methanesulfonate] |  |
|  |  |  |  |  |  |  |  |  | CN[C@@H]1C[C@H]2O[C@@](C)([C@@H]1OC)n1c3ccccc3c3c4c(c5c6ccccc6n2c5c31)C(=O)NC4 [Staurosporine, reference compound] | 99.8 |
